Where two headings read alike, the source gives them in different places.
How the values were obtained:
[1] = molecular target: mouse P23H-opsin mutant (Mus musculus, UniProt P15409, P23H); assay: β-Gal fragment complementation assay: rescue of P23H opsin transport from ER to plasma membrane, U2OS(PLC-EA/P23H-PK) cells; type: cell-based; settings: for β-Gal fragment complementation assay Activity score (%) Max (fit) / Efficacy: 24 h, 5 µM 9-cis-retinal = 100%, from curve fitting; for dependence of activity on light: cells exposed to light vs dark; for Efficacy (%): normalized to 5 µM 9-cis-retinal
Excerpt: U2OS(PLC-EA/P23H-PK) cells. A U2OS stable cell line was generated by DiscoveRx, Inc. (Fremont, CA, USA) for the β-Gal fragment complementation assay used in the small-molecule HTS for rescue of P23H-opsin transport. U2OS cells that continually express P23H-PK and PLC-EA fusion proteins were generated. Briefly, this small subunit of β-Gal (PK fragment) was fused to the C-terminal of the mouse P23H-opsin mutant, while the large EA fragment, a subunit of β-Gal, was fused with PLC, a plasma membrane-anchored peptide. Both constructs were subcloned by DicoveRx, Inc. and transferred into U2OS cells by viral infections. Positive clones were selected under treatment with hygromycin and geneticin.
Briefly, U2OS(PLC-EA /P23H-PK) cells were suspended in assay medium at 3 × 10^5 cells mL^−1. The cell suspension was dispensed into 384-well plates (Greiner Bio-one, Monroe, NC, USA) at 20 µL per well, with a Multidrop dispenser (Thermo Scientific, Waltham, MA, USA). Plates with cells then were centrifuged at 200×g for 15 s before incubation at 37 °C with 5% CO2. Plates were removed 24 h later for treatment with tested compounds. A total of 248 plates containing 79,080 compounds from three small-molecule libraries were paired with an equal number of assay plates with cultured cells. Owing to a limited capacity, these plates were assayed in seven batches. An average of 56.3 nL of 10 mM compound in DMSO was dispensed into each well from column 3 to 22 of paired assay plates using a 50 nL 384-pintool system, such that the final concentration of each compound was 22.52 µM on average. […] Each assay plate was shaken for 5 s before further incubation at 37 °C with 5% CO2. After 24 h, assay plates were removed, and each well was incubated with 25 µL of 1× Gal-Screen assay buffer (1:24 substrate-buffer ratio). Assay plates were incubated in the dark for 60–90 min, and luminescence was read from each assay plate with an Envision microplate reader (PerkinElmer) during a 0.1 s per well integration time. The mean and s.d. of readouts in column 2 of each plate were calculated as Mean0% and SD0%, whereas the average and s.d. of readouts in column 23 were calculated as Mean100% and SD100%. Eq. 1: Activity scores (%) = (RLUcp − Mean0%)/(Mean100% − Mean0%) × 100%, where RLUcp is the relative luminescence unit derived for cells treated with a compound. Eq. 2: Z′-factor = 1–3 × (SD0% + SD100%)/(Mean100% − Mean0%)[32]; Eq. 3: signal-to-background (S/B) ratio = Mean100%/Mean0%. Activities of all tested compounds were registered with their compound ID by GeneData Screener (Genedata, Basel, Switzerland) and Pipeline Pilot software (Accelrys, San Diego, CA, USA). Hits, cherry-picked from a separate stock dose-dependent activity test, were selected with an activity score cutoff at 20%. Activity of each hit was tested again with the β-Gal fragment complementation assay in a 10-dose series with each dose tested in triplicate. The 10 doses tested were 80, 40, 20, 10, 5, 2.5, 1.25, 0.625, 0.313, and 0.156 µM. Dose-dependent curves of each hit compound were fitted with GeneData and Origin software.
Detailed synthetic steps are described in Supplementary Note and Supplementary Fig. 9. […] YC-002-YC-021 were purchased from commercial vendors including Enamine LLC (Monmouth Jct., NJ, USA), Matrix Scientific (Columbia, SC, USA) and Tokyo Chemical Industry Co., Ltd. (Portland, OR, USA). […] Activities of YC compounds were tested with the β-Gal fragment complementation assay, as described in a prior section. All YC compounds were tested at 10 doses, each in triplicate: 80, 40, 20, 10, 5, 2.5, 1.25, 0.625, 0.313, and 0.156 µM.

[2] = molecular target: T1, bovine opsin (Bos taurus, UniProt P02699); assay: Ligand-binding assay by Trp fluorescence quenching, opsin in ROS disc membranes; settings: 20 °C, mean of three biological repeats ± s.d.; for EC50: read-out: EC50 of Trp fluorescence quenching at 330 nm (ΔF/F0)
T1 construct: ROS membranes were isolated from bovine retinas under dim red light; from tissue; host or cells: bovine retina, rod outer segment (ROS) disc membranes, bleached with hydroxylamine
T1 sequence (P02699 whole entry): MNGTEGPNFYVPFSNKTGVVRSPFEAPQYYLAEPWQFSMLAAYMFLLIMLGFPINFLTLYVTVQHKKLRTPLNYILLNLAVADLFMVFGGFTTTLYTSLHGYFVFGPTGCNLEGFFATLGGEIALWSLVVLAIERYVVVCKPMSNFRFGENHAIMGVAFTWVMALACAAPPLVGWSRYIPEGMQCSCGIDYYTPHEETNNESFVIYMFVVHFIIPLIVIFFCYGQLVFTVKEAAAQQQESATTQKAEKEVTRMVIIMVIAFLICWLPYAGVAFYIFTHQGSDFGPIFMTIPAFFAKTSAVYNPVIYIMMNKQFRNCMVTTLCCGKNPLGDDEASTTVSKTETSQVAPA
Experimental: ROS membranes were isolated from bovine retinas under dim red light. To remove membrane associated proteins, ROS membranes were washed with a hypotonic buffer composed of 5 mM bis-tris propane (BTP) and 1 mM EDTA, pH 7.5, followed by gentle homogenization with subsequent centrifugation at 25,000×g for 30 min. This procedure was repeated four times. The final membrane pellet was suspended in 10 mM sodium phosphate buffer, pH 7.0, and 50 mM hydroxylamine to a 3 mg mL^−1 concentration of rhodopsin, placed on ice and illuminated with a 150 Watt bulb for 30 min. Membranes were pelleted by centrifugation at 16,000×g for 5 min and then washed four times with 10 mM sodium phosphate buffer, pH 7.0, and 2% bovine serum albumin followed by 4 washes with 10 mM sodium phosphate buffer, pH 7.0, and two washes with 20 mM BTP, pH 7.5, and 100 mM NaCl. The concentration of opsin was measured with a UV–visible spectrophotometer and quantified using the absorption coefficient ε280 nm = 81,200 M^−1 cm^−1[64].
Emission spectra were recorded with a PerkinElmer L55 Luminescence Spectrophotometer at 20 °C between 300 and 450 nm after excitation at 295 nm, with excitation and emission slit bands set at 5 and 10 nm, respectively. Changes in Trp fluorescence (ΔF/F0; where ΔF is the difference between the initial Trp fluorescence recorded at 330 nm (F0) and Trp fluorescence recorded at 330 nm at a specified YC-001 concentration) were plotted as a function of the ligand concentration. Binding curves were fitted by the Hill function using Origin software for each compound and the EC50 was calculated. All experimental data were corrected for background and self-absorption of excitation and emission light (inner filter effect).

[3] = 24 h preincubation, activity standardized to 5 µM 9-cis-retinal as 100%, Hill fit, read-out: β-Gal fragment complementation assay Activity score (%) EC50

Structure (SMILES)	β-Gal fragment complementation assay Activity score (%) Max (fit) / Efficacy [1]	EC50 [1, 3]	efficacy, % of the control activity score ([1]; HTS hits, variability between experiments)	effect of co-treatment with 9-cis-retinal ([1]; YC-001 dose series together with 5 µM 9-cis-retinal)	dependence of activity on light [1]	Efficacy (%) ([1]; modifications at C4)	EC50 ([1]; modifications linked to C3 of the furan-2(5H)-one ring, 10 doses 0.156-80 µM, read-out: Potency EC50)	Efficacy (%) ([1]; modifications of the furan-2(5H)-one ring)	Efficacy (%) ([1]; more than one site modified)	time to maximum activity ([1]; time course, Fig. 1f)	EC50 [2]	activity in rescuing P23H-opsin transport (in words) [1]	EC50 of Trp fluorescence quenching at 330 nm (ΔF/F0) [2]
O=C1OCC(c2ccc(Cl)s2)=C1c1cccs1 [YC-001]	310%	8.7 µM	150–310%	No additive effect	not affected	248%	8.39 µM	248%	248%	≤ 15 h	980 ± 50 nM	–	–
O=C(CCCCCN1C(=O)c2cccc3cccc(c23)C1=O)NO [Scriptaid, reference compound]	98.2%	3.09 µM	–	–	–	–	–	–	–	–	–	strong activity in rescuing P23H opsin transport	did not affect Trp fluorescence
CC1=C(/C=C/C(C)=C\C=C\C(C)=C\C=O)C(C)(C)CCC1 [9-cis-retinal, reference compound]	159%	2.7 µM	–	–	required that cells be incubated in the dark	–	–	–	–	–	1200 ± 100 nM	–	–
